Experimental data: Sander's compilation of Henry's law constants (doi:10.1007/bf00475967)

Assay: Henry solubility constant Hcp at 295 K (mol/(m3 Pa))
Details: reference: Hellmann (1987)

Row | Compound | Henry solubility constant Hcp at 295 K
1 | Clc1cc(Cl)cc(Cl)c1 [1,3,5-trichlorobenzene] | 0.035
2 | O=[N+]([O-])c1ccc(Cl)cc1 [4-chloronitrobenzene] | 0.18
3 | CC(=O)CC(C)C [4-methyl-2-pentanone] | 0.065
4 | c1ccccc1 [benzene] | 0.002
5 | Clc1ccccc1 [chlorobenzene] | 0.0029
6 | ClCCl [dichloromethane] | 0.0057
7 | O=[N+]([O-])c1ccccc1 [nitrobenzene] | 0.14
8 | CCCCCOC(C)=O [pentyl ethanoate] | 0.034
9 | CC(C)=O [propanone] | 0.14
10 | ClC(Cl)=C(Cl)Cl [tetrachloroethene] | 0.00077
11 | ClC(Cl)(Cl)Cl [tetrachloromethane] | 0.00033
12 | ClC=C(Cl)Cl [trichloroethene] | 0.00098
